Source: PubChem BioAssay AID330 (DTP/NCI, 2004)
Where “and” joins values, the source holds several entries; their conditions need not be identical. Identical values can stand only once. Toxic doses and inconclusive results are not listed. The calls were made as follows: active = survival T/C of 150% or more; inactive = T/C below 125% in these data.

Test system: P388 leukemia ip, CD2F1 mice, survival T/C
Assay: NCI In Vivo Anticancer Drug Screen. Data for tumor model P388 Leukemia (intraperitoneal) in CD2F1 (CDF1) mice
Settings: endpoint: median survival time, higher = longer survival
How it was run: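 Mice carrying the transplanted tumor received test compound or vehicle. Survival was recorded in each group, and the value is the treated-group measurement divided by that of the vehicle-treated control group.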

[1] = dose: 50.0 mg/kg/injection, schedule: Q01DX005 (ip), vehicle: saline with Tween-80
[2] = dose: 100.0 mg/kg/injection, schedule: Q01DX005 (ip), vehicle: saline with Tween-80
[3] = dose: 200.0 mg/kg/injection, schedule: Q01DX005 (ip), vehicle: saline with Tween-80
[4] = dose: 6.25 mg/kg/injection, schedule: Q01DX009 (ip), vehicle: saline
[5] = dose: 12.5 mg/kg/injection, schedule: Q01DX009 (ip), vehicle: saline
[6] = dose: 25.0 mg/kg/injection, schedule: Q01DX009 (ip), vehicle: saline
[7] = dose: 100.0 mg/kg/injection, schedule: Q01DX001 (ip), vehicle: saline with Tween-80
[8] = dose: 200.0 mg/kg/injection, schedule: Q01DX001 (ip), vehicle: saline with Tween-80
[9] = dose: 400.0 mg/kg/injection, schedule: Q01DX001 (ip), vehicle: saline with Tween-80
[10] = dose: 25.0 mg/kg/injection, schedule: Q01DX005 (ip), vehicle: Klucel (hydroxypropylcellulose) (HPC)
[11] = dose: 50.0 mg/kg/injection, schedule: Q01DX005 (ip), vehicle: Klucel (hydroxypropylcellulose) (HPC)
[12] = dose: 100.0 mg/kg/injection, schedule: Q01DX005 (ip), vehicle: Klucel (hydroxypropylcellulose) (HPC)
[13] = dose: 200.0 mg/kg/injection, schedule: Q01DX005 (ip), vehicle: Klucel (hydroxypropylcellulose) (HPC)
[14] = dose: 50.0 mg/kg/injection, schedule: Q01DX009 (ip), vehicle: Klucel (hydroxypropylcellulose) (HPC)
[15] = dose: 100.0 mg/kg/injection, schedule: Q01DX009 (ip), vehicle: Klucel (hydroxypropylcellulose) (HPC)

Measured: T/C

O=[N+]([O-])c1ccc(/C=C/S(=O)(=O)Cc2ccccc2)cc1
inactive: [1] 105 % of control | [2] 100 % of control | [3] 96 % of control

COc1cc(NCCCCCCNCC(C)C)c2nccc(C)c2c1
inactive: [4] 95 % of control | [5] 95 % of control | [6] 96 % of control

CC(C)(O)c1ccccc1Sc1ccccc1C(C)(C)O
inactive: [7] 102 % of control | [8] 103 % of control | [9] 95 % of control

N=c1nc(-c2ccccc2)nc2[nH]c3c4cccc5cccc(c3nc12)c54
inactive: dose: 50.0 mg/kg/injection, schedule: Q01DX005 (ip), vehicle: Klucel + Tween-80 90 % of control | dose: 100.0 mg/kg/injection, schedule: Q01DX005 (ip), vehicle: Klucel + Tween-80 99 % of control | dose: 200.0 mg/kg/injection, schedule: Q01DX005 (ip), vehicle: Klucel + Tween-80 99 % of control

CC(C)CNN(CC(C)C)C(N)=O
inactive: dose: 100.0 mg/kg/injection, schedule: Q01DX009 (ip), vehicle: saline with Tween-80 102 % of control | dose: 200.0 mg/kg/injection, schedule: Q01DX009 (ip), vehicle: saline with Tween-80 105 % of control

Cc1c(Cl)cc[n+]([O-])c1C
inactive: dose: 25.0 mg/kg/injection, schedule: Q01DX009 (ip), vehicle: other 100 % of control | dose: 50.0 mg/kg/injection, schedule: Q01DX009 (ip), vehicle: other 108 % of control | dose: 100.0 mg/kg/injection, schedule: Q01DX009 (ip), vehicle: other 108 % of control | dose: 200.0 mg/kg/injection, schedule: Q01DX009 (ip), vehicle: other 107 % of control | dose: 400.0 mg/kg/injection, schedule: Q01DX009 (ip), vehicle: other 110 % of control

C[C@]12C=CC(=O)C=C1CC[C@@H]1[C@@H]2C(=O)C[C@@]2(C)[C@H]1CC[C@]2(O)C(=O)COC(=O)CSc1c2ccccc2nc2ccccc12
inactive: dose: 12.5 mg/kg/injection, schedule: Q01DX005 (ip), vehicle: Klucel (hydroxypropylcellulose) (HPC) 103 % of control | [10] 100 % of control | [11] 104 % of control and 107 % of control | [12] 107 % of control | [13] 102 % of control

COC(=O)C1C(O)C(C)C(O)OC1C(C)C(O)C(C)/C=C\C=C(/C)C(=O)Nc1c(C)c(OC(C)=O)c2c(c1O)C(=O)C(C)=C1OCOC(/C(C)=C/C(C)=O)=C12 (centres undefined)
inactive: dose: 12.5 mg/kg/injection, schedule: Q01DX009 (ip), vehicle: Klucel (hydroxypropylcellulose) (HPC) 103 % of control | [10] 106 % of control | dose: 25.0 mg/kg/injection, schedule: Q01DX009 (ip), vehicle: Klucel (hydroxypropylcellulose) (HPC) 108 % of control | [11] 113 % of control | [14] 112 % of control | [12] 113 % of control | [15] 108 % of control | [13] 118 % of control

Nc1ccc2cc(Cl)ccc2c1
inactive: dose: 16.5 mg/kg/injection, schedule: Q01DX009 (ip), vehicle: saline with Tween-80 90 % of control

CCOc1c(N=Nc2ccccc2)c(C)nn1C(N)=S
inactive: dose: 60.0 mg/kg/injection, schedule: Q01DX005 (ip), vehicle: Klucel + Tween-80 95 % of control | dose: 120.0 mg/kg/injection, schedule: Q01DX005 (ip), vehicle: Klucel + Tween-80 102 % of control | dose: 240.0 mg/kg/injection, schedule: Q01DX005 (ip), vehicle: Klucel + Tween-80 95 % of control

CNC(=S)Sc1c(Cl)c(Cl)c(Cl)c(Cl)c1Cl
inactive: [14] 108 % of control | [15] 108 % of control | dose: 200.0 mg/kg/injection, schedule: Q01DX009 (ip), vehicle: Klucel (hydroxypropylcellulose) (HPC) 99 % of control

CC(=O)c1ccn[nH]1
inactive: [1] 98 % of control | [2] 99 % of control | [3] 110 % of control

Cc1ccc(S(=O)(=O)Nc2ccc3nc(C)oc3c2)cc1
inactive: [7] 100 % of control | [8] 100 % of control | [9] 100 % of control

CCCCCCCC(=O)[O][Hg][CH2]C1COC([CH2][Hg][O]C(=O)CCCCCCC)CO1 (centres undefined)
inactive: dose: 12.5 mg/kg/injection, schedule: Q04DX003 (ip), vehicle: saline with Tween-80 95 % of control | dose: 16.5 mg/kg/injection, schedule: Q01DX009 (ip), vehicle: saline sonified 120 % of control | dose: 16.5 mg/kg/injection, schedule: Q04DX003 (ip), vehicle: saline 90 % of control | dose: 25.0 mg/kg/injection, schedule: Q04DX003 (ip), vehicle: saline with Tween-80 109 % of control | dose: 25.0 mg/kg/injection, schedule: Q04DX003 (ip), vehicle: saline 90 % of control | dose: 37.5 mg/kg/injection, schedule: Q01DX009 (ip), vehicle: saline sonified 120 % of control | dose: 37.5 mg/kg/injection, schedule: Q04DX003 (ip), vehicle: saline 90 % of control | dose: 50.0 mg/kg/injection, schedule: Q04DX003 (ip), vehicle: saline with Tween-80 118 % of control

CN1C(=O)[C@@H]2OCCOCCO[C@H]3C(=O)N(C)C(=O)[C@@H]3OCCOCCO[C@H]2C1=O
inactive: [10] 112 % of control | [11] 106 % of control | [12] 87 % of control | [13] 96 % of control

CC(=O)n1c(Cl)c(C=O)c2ccccc21
inactive: dose: 100.0 mg/kg/injection, schedule: Q01DX001 (ip), vehicle: Klucel (hydroxypropylcellulose) (HPC) 99 % of control | dose: 200.0 mg/kg/injection, schedule: Q01DX001 (ip), vehicle: Klucel (hydroxypropylcellulose) (HPC) 99 % of control | dose: 400.0 mg/kg/injection, schedule: Q01DX001 (ip), vehicle: Klucel (hydroxypropylcellulose) (HPC) 100 % of control

N#C/C(=N\Nc1ccc(F)cc1)C(=O)C1CC1
inactive: dose: 15.0 mg/kg/injection, schedule: Q01DX005 (ip), vehicle: Klucel (hydroxypropylcellulose) (HPC) 100 % of control | dose: 30.0 mg/kg/injection, schedule: Q01DX005 (ip), vehicle: Klucel (hydroxypropylcellulose) (HPC) 106 % of control | dose: 60.0 mg/kg/injection, schedule: Q01DX005 (ip), vehicle: Klucel (hydroxypropylcellulose) (HPC) 98 % of control

Brc1ccc2c(c1)-c1ccccc1C1=NCCN12
inactive: dose: 5.0 mg/kg/injection, schedule: Q01DX009 (ip), vehicle: saline 100 % of control | dose: 5.0 mg/kg/injection, schedule: Q04DX003 (ip), vehicle: saline 100 % of control | dose: 10.0 mg/kg/injection, schedule: Q01DX009 (ip), vehicle: saline 100 % of control | dose: 10.0 mg/kg/injection, schedule: Q04DX003 (ip), vehicle: saline 100 % of control | dose: 20.0 mg/kg/injection, schedule: Q01DX009 (ip), vehicle: saline 95 % of control | dose: 20.0 mg/kg/injection, schedule: Q04DX003 (ip), vehicle: saline 100 % of control and 104 % of control

CN(C=O)CCN(C)C=O
inactive: dose: 100.0 mg/kg/injection, schedule: Q04DX002 (ip), vehicle: saline 96 % of control | dose: 200.0 mg/kg/injection, schedule: Q04DX002 (ip), vehicle: saline 99 % of control | dose: 400.0 mg/kg/injection, schedule: Q04DX002 (ip), vehicle: saline 104 % of control

CCCCCCN(C)C12CN3CN(CN(C3)C1)C2
inactive: dose: 50.0 mg/kg/injection, schedule: Q01DX009 (ip), vehicle: saline 102 % of control | dose: 100.0 mg/kg/injection, schedule: Q01DX009 (ip), vehicle: saline 102 % of control | dose: 200.0 mg/kg/injection, schedule: Q01DX009 (ip), vehicle: saline 102 % of control

CCCCC(C)(CN(C)C)C(=O)/C=C/c1ccc(Cl)c(Cl)c1 (centres undefined)
inactive: dose: 3.13 mg/kg/injection, schedule: Q01DX009 (ip), vehicle: saline 111 % of control and 97 % of control | [4] 102 % of control and 108 % of control | [5] 109 % of control | [6] 106 % of control and 109 % of control
